Assay results reported in US9420795B2, “Glycolate formulation for preserving wood and like materials” (Matterworks One Limited, priority 2011, dated 2016).

Experiment: Solubility of precipitated copper glycerolate
Details: suspended in water, pH reduced with sulphuric acid

In the case of “copper (II) glycerolate [copper glycerolate]”, the “pH at which the suspended precipitate re-dissolved” value is reported as “around 4”.
